The source made the active and inactive calls. No cut-off for these calls is given here.
What was measured:
[1] = tested on: Human immunodeficiency virus 1; assay: Antiviral activity against HIV1 NL4-3 infected in MT4 cells at 25 ng/ml; type: functional, organism-based
[2] = tested on: MT4; assay: Cytotoxicity against human MT4 cells; type: toxicity, cell-based
[3] = tested on: Human immunodeficiency virus 1; assay: Antiviral activity against HIV1 harboring K103N mutant infected in MT4 cells; type: functional, organism-based; settings: Human immunodeficiency virus 1, MT4
[4] = Selectivity index, ratio of CC50 for human MT4 cells to EC50 for antiviral activity against HIV RES056
[5] = target: Human immunodeficiency virus type 1 reverse transcriptase (Human immunodeficiency virus 1, UniProt Q72547); assay: Inhibition of wild type HIV-1 reverse transcriptase
[6] = tested on: Human immunodeficiency virus 1; assay: Antiviral activity against HIV1 harboring F227L/V106A double mutant infected in MT4 cells; type: functional, organism-based; settings: Human immunodeficiency virus 1, MT4
[7] = tested on: Human immunodeficiency virus 1; assay: Antiviral activity against HIV1 harboring L100I mutant infected in MT4 cells; type: functional, organism-based; settings: Human immunodeficiency virus 1, MT4
[8] = Cytotoxicity against human MT4 cells assessed as reduction in cell viability by MTT assay; type: toxicity, cell-based
[9] = tested on: Human immunodeficiency virus 1; assay: Antiviral activity against HIV1 NL4-3 infected in MT4 cells; type: functional, organism-based; settings: Human immunodeficiency virus 1, NL4-3, MT4
[10] = tested on: Human immunodeficiency virus 1; assay: Antiviral activity against HIV1 harboring E138K mutant infected in MT4 cells; type: functional, organism-based; settings: Human immunodeficiency virus 1, MT4
[11] = tested on: Human immunodeficiency virus 1; assay: Antiviral activity against HIV1 harboring Y181C mutant infected in MT4 cells; type: functional, organism-based; settings: Human immunodeficiency virus 1, MT4
[12] = tested on: Human immunodeficiency virus 1; assay: microbe, parasite or virus in culture; settings: Human immunodeficiency virus 1, RES056, MT4
Description: Antiviral activity against HIV1 RES056 infected in MT-4 cells assessed as viral induced cytopathic effect by MTT assay

[13] = tested on: Human immunodeficiency virus 1; assay: microbe, parasite or virus in culture; settings: Human immunodeficiency virus 1, IIIB, MT4
Description: Antiviral activity against HIV1 IIIB infected in MT-4 cells assessed as viral induced cytopathic effect by MTT assay

[14] = tested on: Human immunodeficiency virus 1; assay: Antiviral activity against HIV1 harboring Y188L mutant infected in MT4 cells; type: functional, organism-based; settings: Human immunodeficiency virus 1, MT4
[15] = Selectivity index, ratio of CC50 for human MT4 cells to EC50 for antiviral activity against HIV IIIB

Compound	Activity [1]	Activity [2]	other results
Cc1cc(C#N)cc(C)c1Oc1ccnc(Nc2ccc(N3CCN(S(C)(=O)=O)CC3)cc2)n1	inactive	Non-Toxic	–
CCS(=O)(=O)N1CCN(c2ccc(Nc3nccc(Oc4c(C)cc(C#N)cc4C)n3)cc2)CC1	inactive	Non-Toxic	–
Cc1cc(/C=C/C#N)cc(C)c1Oc1ccnc(Nc2ccc(C3CCN(S(C)(=O)=O)CC3)cc2)n1	–	Non-Toxic	EC50 [3]: 0.014 µM; selectivity ratio [4]: < 1; IC50 [5]: 0.044 µM; EC50 [6]: 0.042 µM; EC50 [7]: 0.092 µM; CC50 [8]: 4.3 µM; EC50 [9]: 0.00623 µM; EC50 [10]: 0.03 µM; EC50 [11]: 0.32 µM; EC50 [12]: > 4.3 µM; EC50 [13]: 0.004 µM; EC50 [14]: > 4.3 µM; selectivity ratio [15]: 1030
Cc1cc(C#N)cc(C)c1Oc1ccnc(Nc2ccc(C3CCN(S(=O)(=O)N(C)C)CC3)cc2)n1	inactive	Non-Toxic	–
Cc1cc(C#N)cc(C)c1Oc1ccnc(Nc2ccc(N3CCN(S(=O)(=O)N(C)C)CC3)cc2)n1	inactive	Non-Toxic	–
Cc1cc(C#N)cc(C)c1Oc1ccnc(Nc2ccc(C3CCN(S(=O)(=O)C4CC4)CC3)cc2)n1	inactive	Non-Toxic	–
CCS(=O)(=O)N1CCC(c2ccc(Nc3nccc(Oc4c(C)cc(C#N)cc4C)n3)cc2)CC1	inactive	Non-Toxic	–
Cc1cc(C#N)cc(C)c1Oc1ccnc(Nc2ccc(N3CCN(S(=O)(=O)C4CC4)CC3)cc2)n1	inactive	Non-Toxic	–
